From patent US5278148A (Hoffmann-La Roche Inc., priority 1989, dated 1994) come the findings set out here.

This assay concerns the target T1, human renin (Homo sapiens, UniProt P00797).
T1 sequence (P00797 67-406): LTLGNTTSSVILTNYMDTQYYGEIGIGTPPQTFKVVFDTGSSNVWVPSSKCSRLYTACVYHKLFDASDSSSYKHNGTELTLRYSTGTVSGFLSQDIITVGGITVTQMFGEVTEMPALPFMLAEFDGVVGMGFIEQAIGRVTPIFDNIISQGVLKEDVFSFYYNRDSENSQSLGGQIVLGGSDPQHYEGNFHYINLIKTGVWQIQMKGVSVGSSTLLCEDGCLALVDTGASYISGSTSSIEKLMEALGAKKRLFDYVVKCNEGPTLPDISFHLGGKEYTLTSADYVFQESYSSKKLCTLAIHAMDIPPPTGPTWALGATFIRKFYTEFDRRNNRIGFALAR
As to the kind of experiment: In vitro test with pure human renin. In kind it is biochemical. To be noted: human tetradecapeptide renin substrate (hTD), pH 7.4, incubated three hours at 37° C. or 4° C., angiotensin I via RIA. The method, then: In Vitro Test with Pure Human Renin
The test is carried out in Eppendorf test tubes. The incubation mixture consists of (1) 100 μl of human renin in buffer A (0.1M sodium phosphate solution, pH 7.4, 0.1% bovine serum albumin, 0.1% sodium azide and 1 mM ethylenediaminetetraacetic acid), sufficient for a renin activity of 2-3 ng of angiotensin I/ml/hr.; (2) 145 μl of buffer A; (3) 30 μl of 10 μm human tetradecapeptide renin substrate (hTD) in 10 mM hydrochloric acid; (4) 15 μl of dimethyl sulfoxide with or without inhibitor and (5) 10 μl of a 0.03 molar solution of hydroxy- quinoline sulfate in water.
The samples are incubated for three hours at 37° C. or 4° C. in triplicate. 2×100 μl samples per experimental test tube are used in order to measure the production of angiotensin I via RIA (standard radioimmunoassay; clinincal assay solid phase kit). Cross reactivities of the antibody used in the RIA are: angiotensin I 100%; angiotensin II 0.0013%; hTD (angiotensin I-Val-Ile-His-Ser-OH) 0.09%. The production of angiotensin I is determined by the difference between the experiment at 37° C. and that at 4° C.
The following controls are carried out:
(a) Incubation of hTD samples without renin and without inhibitor at 37° C. and 4° C. The difference between these two values gives the base value of angiotensin I production.
(b) Incubation of hTD samples with renin, but without inhibitor at 37° C. and 4° C. The difference between these values gives the maximal value of angiotensin I production.
In each sample the base value of angiotensin I production is substracted from the angiotensin I production which is determined. The difference between the maximal value and the base value gives the value of the maximal substrate hydrolysis (=100%) by renin.
The results are given as IC50 values which denote that concentration of the inhibitor at which the enzymatic activity is inhibited by 50%. The IC50 values are determined from a linear regression curve from a logit-log plot.
What is called IC50 is the concentration that gives 50% inhibition. Low readings indicate greater potency, high ones weaker potency. As to `CN(C[C@H](O)[C@H](CC1CCCCC1)NC(=O)[C@H](Cc1c[nH]cn1)NC(=O)[C@@H](CC(=O)C(C)(C)C)Cc1ccccc1)C(=O)[C@H](Cc1c[nH]cn1)NC(=O)[C@@H](CC(=O)C(C)(C)C)Cc1ccccc1` [C], 28 nM corresponded to half-maximal inhibition (IC50).
Molecule `CN(C[C@H](O)[C@H](CC1CCCCC1)NC(=O)[C@H](Cc1c[nH]cn1)NC(=O)[C@@H](CC(=O)C(C)(C)C)Cc1ccccc1)C(=O)[C@H](Cc1c[nH]cn1)NC(=O)CCc1ccccc1` [D, (S)-N-[(1S,2S)-1-(Cyclohexylmethyl)-2-hydroxy-3-[(S)-3-(imidazol-4-yl)-2-hydrocinnamamido-N-methylpropionamido]propyl]-α-[(R)-α-(3,3-dimethyl-2-oxobutyl)hydrocinnamamido]imidazole-4-propionamide] returned a half-maximal inhibitory concentration (IC50) of 19 nM.
With “(S)-N-[(1S,2S)-1-(Cyclohexylmethyl)-3-[(S)-α-[(R)-α-(3,3-dimethyl-2-oxobutyl)hydrocinnamamido]-N-isopropylimidazol-4-propionamido]-2-hydroxypropyl]-α-[(R)-α-(3,3-dimethyl-2-oxobutyl)hydrocinnamamido]imidazole-4-propionamide” the figure was 41 nM; with `CC(C)(C)C(=O)C[C@@H](Cc1ccccc1)C(=O)N[C@@H](Cc1c[nH]cn1)C(=O)N[C@@H](CC1CCCCC1)[C@@H](O)CN1C(=O)c2ccccc2C1=O` [G, (S)-N-[(1S,2S)-1-(Cyclohexylmethyl)-2-hydroxy-3-phthalimidopropyl]-α-[(R)-α-(3,3-dimethyl-2-oxobutyl)hydrocinnamamido]imidazole-4-propionamide], 20 nM.
`CC(C)(C)C(=O)C[C@@H](Cc1ccccc1)C(=O)N[C@@H](Cc1c[nH]cn1)C(=O)N[C@@H](CC1CCCCC1)[C@@H](O)CN1CCCCC1=O` [A, (S)-N-[(1S,2S)-1-(Cyclohexylmethyl)-2-hydroxy-3-(2oxopiperidino)propyl]-α-[(R)-α-(3,3-dimethyl-2-oxobutyl)hydrocinnamamido]imidazole-4-propionamide]: the half-inhibitory concentration (IC50) is 41 nM.
`CN(C[C@H](O)[C@H](CC1CCCCC1)NC(=O)[C@H](Cc1c[nH]cn1)NC(=O)[C@H](Cc1ccccc1)NC(=O)OC(C)(C)C)C(=O)[C@H](Cc1ccccc1)NC(=O)OC(C)(C)C` [F, t-Butyl [(S)-α-[[(2S,3S)-3-[(S)-2-[(S)-α-(1-t-butoxyformamido)hydrocinnamamido]-3-imidazol-4-ylpropionamido]-4-cyclohexyl-2-hydroxybutyl]methylcarbamoyl]phenethyl]carbamate] gave a 50% inhibitory concentration (IC50) of 15 nM.
Molecule `CN(C[C@H](O)[C@H](CC1CCCCC1)NC(=O)[C@H](Cc1c[nH]cn1)NC(=O)[C@H](Cc1ccccc1)NC(=O)OC(C)(C)C)C(=O)[C@H](Cc1c[nH]cn1)NC(=O)[C@H](Cc1ccccc1)NC(=O)OC(C)(C)C` [E] showed an IC50 of 30 nM.
